In patent US4361573A, “α,α-Diaryl-β-(tert-amino)-propanols and diuretic pharmaceutical compositions containing them” (Temmler AG, priority 1974, dated 1982):
Where two headings read alike, the source gives them in different places.

Legend:
[1] = saluretic efficiency test in rats: elimination of water, sodium, chloride and potassium in 6 h urine after oral dosing; format: in vivo; settings: rats, oral; for change in vivo at 40 µmol/kg / change in vivo at 80 µmol/kg: Rattus norvegicus
Protocol: In order to test the saluretic efficiency of the compounds of the invention rats having a weight of 150 to 200 g were used. The animals were kept without food, but not without drinking water, for 15 hours before the beginning of the test. The test substances were administered to groups of four rats, of substantially equal weight, with a rigid stomach probe in a 1% methyl cellulose slime. The dose required per 100 g animal (unit dosage in μmol/kg body weight) was contained in one ml. Following the administration of the substance the rats were given 5 ml 0.9% sodium chloride solution per 100 g body weight p.o. and placed in a diuresis funnel after manually emptying the bladder. Urine was collected for 6 hours in an airconditioned chamber at 24°±1° C. and a relative air humidity of 50±5%. The diuretic effect of a particular dose was tested on at least two, but more frequently however on four to eight groups of rats. Two sodium chloride controls were also used for each test day.
At the end of the collecting periods the volumes of urine discharged per group were noted and the pH value and also the content of sodium, potassium (flame-photometrically) and chloride (measured argentometrically with the determination of the end point potentiometrically) were determined.
From the analysis results the quantities of Na^+, K^+ and Cl^- eliminated were calculated in […] body weight, and the values thus obtained compared with those of the control animals.
Means values and twice the standard deviation were calculated from the data for the sodium chloride controls, in order to determine the normal range. Then, for the values found with the test substances, the percentage variations from the average in respect of these parameters were calculated and tabulated. In this connection, with the results given in Table 1, the upper limit of the normal range, which is defined as the mean value plus twice the standard deviation, was selected as the reference quantity for the variations. In this way relevant hyper-eliminations could clearly be recognised.
In Table 2, the mean percentage variations in potassium elimination after administration of the compounds in accordance with the invention are compared with the mean value of the potassium elimination in the case of the sodium chloride controls. At the same time the […] ratio is given which provides conclusive evidence of the effective saluretic property. The larger this quotient is, then the more sodium than potassium is eliminated in proportion.

[2] = comparison of toxicity in mice: oral LD50 by the Lichtfiel & Wilcoxon method; format: in vivo; settings: mouse, in vivo, observation period 7 days, 95% confidence limit in brackets, read-out: LD50
Text: In Table 3 the mean lethal doses for mice, administered orally (LD50 determination by the […] & WILCOXON method - J.Pharmacol. Exp. Ther. 96,98 (1949)) are compared.

[3] = mice, oral; literature value; cited from earlier work
[4] = 6 h, 40 μmol/kg body wt., relative to mean K+ elimination of the controls, read-out: Mean percentage variation in the elimination of potassium
[5] = 6 h, 80 μmol/kg body wt., relative to mean K+ elimination of the controls, read-out: Mean percentage variation in the elimination of potassium
[6] = 40 μmol/kg body wt., deviation from control mean plus twice the standard deviation, 6 h urine, read-out: Mean percentage variation in the elimination of Chloride
[7] = 40 μmol/kg body wt., deviation from control mean plus twice the standard deviation, 6 h urine, read-out: Mean percentage variation in the elimination of H2O
[8] = 40 μmol/kg body wt., deviation from control mean plus twice the standard deviation, 6 h urine, read-out: Mean percentage variation in the elimination of Sodium
[9] = 80 μmol/kg body wt., deviation from control mean plus twice the standard deviation, 6 h urine, read-out: Mean percentage variation in the elimination of Chloride
[10] = 80 μmol/kg body wt., deviation from control mean plus twice the standard deviation, 6 h urine, read-out: Mean percentage variation in the elimination of H2O
[11] = 80 μmol/kg body wt., deviation from control mean plus twice the standard deviation, 6 h urine, read-out: Mean percentage variation in the elimination of Sodium

| SMILES | change in vivo at 40 µmol/kg [1, 4] | change in vivo at 80 µmol/kg [1, 5] | change in vivo at 40 µmol/kg [1, 6] | change in vivo at 40 µmol/kg [1, 7] | change in vivo at 40 µmol/kg [1, 8] | change in vivo at 80 µmol/kg [1, 9] | change in vivo at 80 µmol/kg [1, 10] | change in vivo at 80 µmol/kg [1, 11] | Quotient Na/K ([1]; 40 μmol/kg body wt.) | Quotient Na/K ([1]; 80 μmol/kg body wt.) | LD50 [2] | LD50 [3] |
| --- | --- | --- | --- | --- | --- | --- | --- | --- | --- | --- | --- | --- |
| C=CCc1cc2c(cc1C(O)(c1ccc(OC)cc1)C(C)N1CCCCC1)OCO2 (centres unmarked) [T 2378, 1-(3',4'-methylenedioxy-6'-allylphenyl)-1-(4"-methoxyphenyl)-2-piperidino-propane-1-ol] | 11.2% | 32.7% | -5.6% | 6.7% | 6.7% | -20.4% | 39.6% | 45% | 5.70 | 6.49 | 1600 mg/kg |  |
| COc1ccc(C(O)(c2cc(C(C)(C)C)cc(C)c2OC)C(C)N2CCCCC2)c(OC)c1 (centres unmarked) [T 2455, 1-(2'-methoxy-3'-methyl-5'-tertiary-butylphenyl)-1-(2",4"-dimethoxyphenyl)-2-piperidino-propan-1-ol] | 13.3% | -23.5% | 21.4% | 39.8% | 31.3% | 34.8% | 62.4% | 55.8% | 6.88 | 12.93 | 4550 mg/kg |  |
| CCOc1c(C(C)C)cc(C(O)(c2ccc(OC)cc2)C(C)N2CCCCC2)cc1C(C)C (centres unmarked) [T 2310] | 14.3% | -2% | 8.9% | 41.3% | 27.3% | 36.3% | 67.9% | 42.3% | 6.62 | 8.64 | 520 mg/kg |  |
| Cc1c(C(O)(c2ccccc2)C(C)N2CCCCC2)cc2c(c1C)OCCC2 (centres unmarked) [T 2129, 1-(7',8'-dimethylchromanyl-(6'))-1-phenyl-2-piperidino-propan-1-ol] | 12.3% | 35.7% | 12.4% | 23.9% | 32.6% | 22% | 21.3% | 19.4% | 7.02 | 5.23 | > 3200 mg/kg |  |
| CCOc1ccc(C(O)(c2cc(C(C)C)c(OCC)c(C(C)C)c2)C(C)N2CCCCC2)cc1 (centres unmarked) [T 2453, 1-(4'-ethoxy-3',5'-diisopropylphenyl)-1-(4"-ethoxyphenyl)-2-piperidino-propan-1-ol] | -2% |  | 6.9% | 13.4% | 7.6% | 31.2% | 51.7% | 62.2% | 6.52 | 9.63 | 700 mg/kg |  |
| N=C(N)NC(=O)c1nc(Cl)c(N)nc1N [N-amidino-3.5-diamino-6-chloropyrazinocarboxamide] |  |  |  |  |  |  |  |  |  |  |  | 70 mg/kg |
| COc1cc(C)c(C(O)(c2ccccc2)C(C)N2CCCC2)cc1C(C)(C)C (centres unmarked) [T 1856, 1-(4'-methoxy-2'-methyl-5'-tert-butylphenyl)-1-phenyl-2-pyrrolidino-propan-1-ol] | 25.5% | 22.4% | 19.4% | 41% | 30.6% | 32.5% | 59.7% | 47.6% | 6.18 | 7.16 | 2200 mg/kg |  |
| COc1ccc(C(O)(c2cc(C(C)(C)C)cc(C)c2OC)C(C)N2CCCCC2)cc1OC (centres unmarked) [T 2464, 1-(2'-methoxy-3'-methyl-5'-tertiary-butylphenyl)-1-(3",4"-dimethoxyphenyl)-2-piperidinopropan-1-ol] | 9.2% | -1% | 30.4% | 49.8% | 64.4% | 38.3% | 65.9% | 79% | 8.94 | 10.74 | > 4550 mg/kg |  |
| COc1ccc(C(O)(c2cc(C(C)C)c(OC)c(C(C)C)c2)C(C)N2CCCCC2)cc1OC (centres unmarked) [T 1882, 1-(4'-methoxy-3',5'-diisopropylphenyl)-1-(3",4"-dimethoxyphenyl)-2-piperidino-propan-1-ol] | 13.3% | -12.2% | 6.3% | 17.7% | 24.4% | -4.4% | 7.5% | 9.5% | 6.52 | 7.41 | 3400 mg/kg |  |
| CCOc1ccc(C(O)(c2cc(C(C)C)c(OC)c(C(C)C)c2)C(C)N2CCCCC2)cc1 (centres unmarked) [T 2258, 1-(4'-methoxy-3',5'-diisopropylphenyl)-1-(4"-ethoxyphenyl)-2-piperidino-propan-1-ol] | 19.4% | 1% | 12.8% | 28.1% | 22.9% | 17.3% | 32.3% | 24.6% | 6.11 | 7.32 | > 4500 mg/kg |  |
| COc1c(C(C)C)cc(Cl)c(C)c1C(O)(c1ccccc1)C(C)N1CCCC1 (centres unmarked) [T 2350, 1-(3'-chloro-6'-methoxy-2'-methyl-5'-isopropylphenyl)-1-phenyl-2-pyrriolidino-propan-1-ol] | -2% | 25.5% | 2.6% | 24.1% | 15.5% | 21.2% | 49.8% | 40.5% | 7.00 | 6.65 | > 4500 mg/kg |  |
